Data: patent publication US11395828B2, “Spironolactone aqueous compositions” (CMP DEVELOPMENT LLC, priority 2015, dated 2022)
Converted amounts (≈) assume the structure as drawn.

Assays:
[1] = Pramar et al.; cited from earlier work
[2] = added to a standard therapy for adults with severe heart failure; cited from earlier work
[3] = reported in Pramar et al.; cited from earlier work
[4] = Particle size by laser diffraction; assay type: physicochemical; settings: spironolactone solid prior to composition manufacture
Protocol: Particle size measurements were performed on spironolactone (prior to composition manufacture) and on the particulate matter present in the compositions described herein by laser diffraction. The reported particle sizes D(v, 0.1), D(v, 0.5), and D(v, 0.9) relate to the mass median diameter (in μm) of the volume of distribution of the given particles. […] Alternatively, particle size can be estimated using optical microscopy.

Dissolution, USP <711> = assay type: physicochemical; settings: USP <711> dissolution study
Protocol: Dissolution was measured in a manner consistent with USP <711> reporting the amount of dissolved spironolactone as a percent of labeled content with an associated relative standard devision (“RSD”).

[5] = sorbic acid and sorbate; cited from earlier work

Row | Structure (SMILES) | particle size D(v, 0.5) [4] | particle size D(v, 0.9) [4] | labeled content dissolved at 5-minutes (Dissolution, USP <711>) | further results
1 | CC(=O)S[C@@H]1CC2=CC(=O)CC[C@]2(C)[C@H]2CC[C@@]3(C)[C@@H](CC[C@@]34CCC(=O)O4)[C@H]12 [Spironolactone] | – | – | – | pH at which spironolactone exhibits maximum stability [1]: 4.5; reduction in mortality [2]: 30%; aqueous solubility [3]: 28 µg/mL (≈ 67.2 µM)
2 | CC(=O)S[C@@H]1CC2=CC(=O)CC[C@]2(C)[C@H]2CC[C@@]3(C)[C@@H](CC[C@@]34CCC(=O)O4)[C@H]12 [micronized spironolactone, spironolactone] | about 3.64 m | about 9.42 m | about 90 % of labeled content | –
3 | CC(=O)S[C@@H]1CC2=CC(=O)CC[C@]2(C)[C@H]2CC[C@@]3(C)[C@@H](CC[C@@]34CCC(=O)O4)[C@H]12 [unmicronized spironolactone, spironolactone] | 18.3 µm | 35.5 µm | about 50 % of labeled content | particle size D(v, 0.1) [4]: 7.47 µm
4 | C/C=C/C=C/C(=O)O [sorbic acid] | – | – | – | equilibrium pKa-value [5]: about 4.8
